# Experimental data reported in paper PMC12778052 (Science Advances, 2026).
# Key:
# HT1376 cells = assay: [^68Ga]AJ647 binding after EV preincubation, HT1376 cells; format: cell-based; details: EV 60 nM preincubated 30 min, P < 0.0001
# Method: An FITC analog of EV was made using the manufacturer’s recommended protocol (Thermo Fisher Scientific, no. 46409). Briefly, 1 mg of EV was incubated with FITC-NHS ester at a 5:1 molar ratio overnight at 4°C at 0.1 M borate buffer (pH 8.0). Excess unbound FITC-NHS ester was washed off by performing buffer exchange with 1× PBS using three rounds of ultracentrifugation at 4000g for 10 min (3-kDa molecular weight cutoff filter, Amicon, no. UFC900308). The effect of nonradioactive AJ647 on EV binding to Nectin-4 was assessed by incubating HT1376 cells at varying concentrations (5.4 μM to 0.01 nM using a serial dilution) of AJ647 for 30 min at 4°C. Unbound AJ647 was washed off using 3 ml of cold PBS. Cells were incubated with EV-FITC for 30 min at 4°C. Excess EV-FITC was washed off using 3 ml of cold PBS. The mean fluorescence intensity was measured using a flow cytometer, and data are reported as the percentage of 0 nM AJ647. For the effect of EV on [^68Ga]AJ647 binding, EV was used at concentrations of 90 to 0.04 nM using serial dilutions for 30 min at 4°C. Unbound EV was washed off using cold PBS. Then, cells were incubated with 1 μCi of [^68Ga]AJ647 for an additional 30 min. Excess [^68Ga]AJ647 was washed off three times with cold PBS. Samples were read in an automated gamma counter, and data are reported as the percentage of 1-μCi standard counts.
# in vivo = assay: in vivo; parameters: species or system NSG mice; details: mouse; for tissue uptake at 2 min / tissue uptake at 0.25 h / tissue uptake at 1 h / tissue uptake at 2 h / tissue uptake at 3 h / tissue to tissue ratio at 2 min / tissue to tissue ratio at 0.25 h / tissue to tissue ratio at 1 h / tissue to tissue ratio at 2 h / tissue to tissue ratio at 3 h: NSG, iv, 1.85 MBq, total radioactivity
# Method: Mice were injected with cancer cells subcutaneously in 100 μl of PBS (top right flank) for all tumor models. The following cell numbers were used: HT1376 (4 million), UC9 (3 million), UC14 (3 million), RT112 (1.5 million), T24(3 million), and SCaBER (4 million). Mice with tumor volumes of 100 to 200 mm^3 were used for all experiments. A minimum of four mice were used for all biodistribution studies. A minimum of seven mice were used in PD experiment to account for greater variability. To validate imaging studies, ex vivo biodistribution studies were conducted in mice with tumors of 100 to 200 mm^3 in size. […] In all other studies, a 60-min time point was chosen. Selected tissues (blood, skin, muscle, bone, salivary glands, tumor, lungs, heart, liver, pancreas, spleen, kidneys, bladder, and testicles) were collected, weighed, and counted, and their %IA/g values were calculated as described previously ([33]). For EV PD studies, fewer organs were harvested to accommodate a higher number of mice.
compound,measurement,setting,value
enfortumab vedotin [EV],effect on [^68Ga]AJ647 binding,HT1376 cells,significantly reduced [^68Ga]AJ647 binding
"CSCC[C@@H]1NC(=O)[C@@H]2CSCCC(=O)N3CN(CN(C3)C(=O)CCSC[C@H](NC(=O)CCOCCOCCOCCOCCOCCOCCOCCOCCOCCOCCOCCOCCNC(=O)CN3CCN(CC(=O)O)CCN(CC(=O)O)CC3)C(=O)N3CCC[C@H]3C(=O)N[C@@H](Cc3cccc4ccccc34)C(=O)N[C@@H](CC(=O)O)C(=O)N2)C(=O)CCSC[C@@H](C(N)=O)NC(=O)[C@H](Cc2c[nH]c3ccccc23)NC(=O)[C@@H]2C[C@@H](O)CN2C(=O)[C@@H]2CCCN2C(=O)[C@H]([C@@H](C)O)NC(=O)[C@H](CO)NC(=O)[C@H](Cc2c[nH]c3ccccc23)NC(=O)[C@@H](CC(=O)O)NC(=O)[C@H](CCCCNC(=N)N)NC1=O [[^68Ga]AJ647, metal not drawn]",tissue uptake at 2 min,in vivo; Blood,35.8 ± 3.64 %ID/g
same,tissue uptake at 0.25 h,in vivo; Blood,2.94 ± 0.68 %ID/g
same,tissue uptake at 1 h,in vivo; Blood,0.84 ± 0.22 %ID/g
same,tissue uptake at 2 h,in vivo; Blood,0.28 ± 0.06 %ID/g
same,tissue uptake at 3 h,in vivo; Blood,0.32 ± 0.09 %ID/g
same,tissue uptake at 2 min,in vivo; Femur,1.88 ± 0.29 %ID/g
same,tissue uptake at 0.25 h,in vivo; Femur,1.3 ± 0.05 %ID/g
same,tissue uptake at 1 h,in vivo; Femur,0.57 ± 0.18 %ID/g
same,tissue uptake at 2 h,in vivo; Femur,0.27 ± 0.09 %ID/g
same,tissue uptake at 3 h,in vivo; Femur,0.34 ± 0.09 %ID/g
same,tissue uptake at 2 min,in vivo; Heart,11.3 ± 0.51 %ID/g
same,tissue uptake at 0.25 h,in vivo; Heart,1.15 ± 0.34 %ID/g
same,tissue uptake at 1 h,in vivo; Heart,0.43 ± 0.07 %ID/g
same,tissue uptake at 2 h,in vivo; Heart,0.19 ± 0.01 %ID/g
same,tissue uptake at 3 h,in vivo; Heart,0.22 ± 0.01 %ID/g
same,tissue uptake at 2 min,in vivo; Liver,6.45 ± 1.39 %ID/g
same,tissue uptake at 0.25 h,in vivo; Liver,1.19 ± 0.3 %ID/g
same,tissue uptake at 1 h,in vivo; Liver,0.45 ± 0.09 %ID/g
same,tissue uptake at 2 h,in vivo; Liver,0.21 ± 0.07 %ID/g
same,tissue uptake at 3 h,in vivo; Liver,0.23 ± 0.02 %ID/g
same,tissue uptake at 2 min,in vivo; Lung,24.2 ± 7.05 %ID/g
same,tissue uptake at 0.25 h,in vivo; Lung,3.66 ± 0.5 %ID/g
same,tissue uptake at 1 h,in vivo; Lung,1.66 ± 0.25 %ID/g
same,tissue uptake at 2 h,in vivo; Lung,0.81 ± 0.28 %ID/g
same,tissue uptake at 3 h,in vivo; Lung,0.47 ± 0.2 %ID/g
same,tissue uptake at 2 min,in vivo; Muscle,0.96 ± 0.19 %ID/g
same,tissue uptake at 0.25 h,in vivo; Muscle,0.93 ± 0.36 %ID/g
same,tissue uptake at 1 h,in vivo; Muscle,0.38 ± 0.06 %ID/g
same,tissue uptake at 2 h,in vivo; Muscle,0.2 ± 0.11 %ID/g
same,tissue uptake at 3 h,in vivo; Muscle,0.18 ± 0.05 %ID/g
same,tissue uptake at 2 min,in vivo; Salivary glands,6.3 ± 1.24 %ID/g
same,tissue uptake at 0.25 h,in vivo; Salivary glands,4.74 ± 0.94 %ID/g
same,tissue uptake at 1 h,in vivo; Salivary glands,1.48 ± 0.18 %ID/g
same,tissue uptake at 2 h,in vivo; Salivary glands,0.67 ± 0.09 %ID/g
same,tissue uptake at 3 h,in vivo; Salivary glands,0.69 ± 0.07 %ID/g
same,tissue uptake at 2 min,in vivo; Skin,1.13 ± 0.16 %ID/g
same,tissue uptake at 0.25 h,in vivo; Skin,2.74 ± 0.5 %ID/g
same,tissue uptake at 1 h,in vivo; Skin,1.45 ± 0.33 %ID/g
same,tissue uptake at 2 h,in vivo; Skin,0.82 ± 0.22 %ID/g
same,tissue uptake at 3 h,in vivo; Skin,0.66 ± 0.12 %ID/g
same,tissue uptake at 2 min,in vivo; Small intestine,0.85 ± 0.23 %ID/g
same,tissue uptake at 0.25 h,in vivo; Small intestine,0.68 ± 0.23 %ID/g
same,tissue uptake at 1 h,in vivo; Small intestine,0.52 ± 0.17 %ID/g
same,tissue uptake at 2 h,in vivo; Small intestine,0.16 ± 0.02 %ID/g
same,tissue uptake at 2 min,in vivo; Stomach,0.34 ± 0.11 %ID/g
same,tissue uptake at 0.25 h,in vivo; Stomach,0.49 ± 0.36 %ID/g
same,tissue uptake at 2 h,in vivo; Stomach,0.13 ± 0.04 %ID/g
same,tissue uptake at 2 min,in vivo; Thymus,15.7 ± 5.42 %ID/g
same,tissue uptake at 0.25 h,in vivo; Thymus,2.38 ± 0.7 %ID/g
same,tissue uptake at 1 h,in vivo; Thymus,0.71 ± 0.3 %ID/g
same,tissue uptake at 2 h,in vivo; Thymus,0.67 ± 0.21 %ID/g
same,tissue uptake at 3 h,in vivo; Thymus,0.52 ± 0.23 %ID/g
same,tissue uptake at 2 min,in vivo; Tumor,0.72 ± 0.31 %ID/g
same,tissue uptake at 0.25 h,in vivo; Tumor,3.75 ± 0.86 %ID/g
same,tissue uptake at 1 h,in vivo; Tumor,3.72 ± 0.36 %ID/g
same,tissue uptake at 2 h,in vivo; Tumor,2.06 ± 0.49 %ID/g
same,tissue uptake at 3 h,in vivo; Tumor,1.39 ± 0.32 %ID/g
same,tissue to tissue ratio at 2 min,in vivo; Tumor/blood ratio,0.02 ± 0.01
same,tissue to tissue ratio at 0.25 h,in vivo; Tumor/blood ratio,1.41 ± 0.4
same,tissue to tissue ratio at 1 h,in vivo; Tumor/blood ratio,4.6 ± 0.47
same,tissue to tissue ratio at 2 h,in vivo; Tumor/blood ratio,7.27 ± 0.76
same,tissue to tissue ratio at 3 h,in vivo; Tumor/blood ratio,4.58 ± 1.33
same,tissue to tissue ratio at 2 min,in vivo; Tumor/muscle ratio,0.79 ± 0.45
same,tissue to tissue ratio at 0.25 h,in vivo; Tumor/muscle ratio,4.23 ± 0.94
same,tissue to tissue ratio at 1 h,in vivo; Tumor/muscle ratio,10.1 ± 2.19
same,tissue to tissue ratio at 2 h,in vivo; Tumor/muscle ratio,11.3 ± 3.03
same,tissue to tissue ratio at 3 h,in vivo; Tumor/muscle ratio,8.2 ± 4.02
same,tissue uptake at 2 min,"in vivo; male, Adrenals",4.81 ± 2.58 %ID/g
same,tissue uptake at 0.25 h,"in vivo; male, Adrenals",2.6 ± 1.1 %ID/g
same,tissue uptake at 1 h,"in vivo; male, Adrenals",4.45 ± 2.03 %ID/g
same,tissue uptake at 3 h,"in vivo; male, Adrenals",3.8 ± 0.47 %ID/g
same,tissue uptake at 2 min,"in vivo; male, Bladder",1.72 ± 0.24 %ID/g
same,tissue uptake at 0.25 h,"in vivo; male, Bladder",24.1 ± 15.3 %ID/g
same,tissue uptake at 1 h,"in vivo; male, Bladder",39.5 ± 21.3 %ID/g
same,tissue uptake at 2 h,"in vivo; male, Bladder",22.6 ± 6.46 %ID/g
same,tissue uptake at 3 h,"in vivo; male, Bladder",58 ± 24.8 %ID/g
same,tissue uptake at 2 min,"in vivo; male, Brain",0.54 ± 0.15 %ID/g
same,tissue uptake at 0.25 h,"in vivo; male, Brain",0.1 ± 0.02 %ID/g
same,tissue uptake at 1 h,"in vivo; male, Brain",0.06 ± 0.01 %ID/g
same,tissue uptake at 2 h,"in vivo; male, Brain",0.06 ± 0.02 %ID/g
same,tissue uptake at 3 h,"in vivo; male, Brain",0.06 ± 0.02 %ID/g
same,tissue uptake at 0.25 h,"in vivo; male, Kidney",20.4 ± 3.7 %ID/g
same,tissue uptake at 1 h,"in vivo; male, Kidney",30.8 ± 4.37 %ID/g
same,tissue uptake at 2 h,"in vivo; male, Kidney",17.3 ± 12.9 %ID/g
same,tissue uptake at 2 min,"in vivo; male, Large intestine",0.25 ± 0.16 %ID/g
same,tissue uptake at 0.25 h,"in vivo; male, Large intestine",0.41 ± 0.11 %ID/g
same,tissue uptake at 3 h,"in vivo; male, Large intestine",0.18 ± 0.05 %ID/g
same,tissue uptake at 2 min,"in vivo; male, Pancreas",2.39 ± 0.72 %ID/g
same,tissue uptake at 0.25 h,"in vivo; male, Pancreas",2.5 ± 0.38 %ID/g
same,tissue uptake at 1 h,"in vivo; male, Pancreas",0.93 ± 0.03 %ID/g
same,tissue uptake at 2 h,"in vivo; male, Pancreas",0.3 ± 0.06 %ID/g
same,tissue uptake at 3 h,"in vivo; male, Pancreas",0.42 ± 0.02 %ID/g
same,tissue uptake at 2 min,"in vivo; male, Spleen",1.04 ± 0.23 %ID/g
same,tissue uptake at 0.25 h,"in vivo; male, Spleen",4.32 ± 1.31 %ID/g
same,tissue uptake at 1 h,"in vivo; male, Spleen",1.75 ± 0.21 %ID/g
same,tissue uptake at 2 h,"in vivo; male, Spleen",0.84 ± 0.17 %ID/g
same,tissue uptake at 3 h,"in vivo; male, Spleen",0.83 ± 0.07 %ID/g
same,tissue uptake at 2 min,"in vivo; male, Testicles",0.79 ± 0.07 %ID/g
same,tissue uptake at 0.25 h,"in vivo; male, Testicles",0.86 ± 0.12 %ID/g
same,tissue uptake at 1 h,"in vivo; male, Testicles",0.74 ± 0.2 %ID/g
same,tissue uptake at 2 h,"in vivo; male, Testicles",0.52 ± 0.17 %ID/g
same,tissue uptake at 3 h,"in vivo; male, Testicles",0.93 ± 0.5 %ID/g
same,blood pool activity cleared,in vivo,more than 90%
